For the test, the system named is Phosphorylation of STAT6 in human A549 cells. The test is described as follows: Phosphorylated STAT6 (pSTAT6) flow cytometry assay in human A549 cells. In kind it is cell-based. The source says: Example 3. Phosphorylated STAT6 (pSTAT6) Flow Cytometry Assay in Human A549 Cells
Phosphorylation of STAT6 in human A549 cells was quantitatively measured using flow cytometry technology.
On the technique in general: A flow cytometer gives signals particle by particle.

Where [1] appears, read: read-out: STAT6 IL4 pSTAT6 assay in A549 cells: Average IC50.

pIC50: −log10 of the molar value. Read-outs that look alike come from different tables or passages of the source.

With `CN(C)C(=O)c1cc2cc(C3=CCCN(C(=O)CCn4ccnn4)C3)cc(-c3ccc4[nH]ccc4c3)c2o1` [Example I-1071], the pIC50 under setting [1] was more than 7.00.

Turning to `COc1ccccc1-c1cc(C2=CCCN(C(=O)CCn3ccnn3)C2)c(F)c2[nH]c(C(=O)N3CCN(c4cc(C)cc(Br)c4OC)CC3)cc12` [Example I-964], the pIC50 under setting [1] was 6.00 to 7.00.

For `COc1ccccc1-c1cc(C2=CCCN(C(C)=O)C2)c(F)c2sc(C(=O)N3CCN(c4ncccc4OC)CC3)cc12` [Example I-1106], the negative logarithm of the IC50 (pIC50) under setting [1] is 5.00 to 6.00.

For `Cc1cc(-c2cc(C3=CCCN(C(=O)CCn4ccnn4)C3)cc3cc(C(=O)N(C)C)oc23)n(C)n1` [Example I-1070], the pIC50 under setting [1] is more than 7.00.

Turning to `CN(C)C(=O)c1cc2cc(C3=CCCN(C(=O)CCn4ccnn4)C3)cc(-c3cccc4c3CN(C)C4=O)c2o1` [Example I-845], the negative logarithm of the IC50 (pIC50) under setting [1] is more than 7.00.

Regarding `CNc1ccc(-c2cc(C3=CCCN(C(=O)CCn4ccnn4)C3)c(F)c3[nH]c(C(=O)N4CCN(C)CC4)cc23)c(OC)c1` [Example I-990], the pIC50 under setting [1] is more than 7.00.

For `COc1cc(F)cnc1N1CCN(C(=O)c2cc3c(-c4ccc(OC5CCCCO5)cc4)cc(C4=CCCN(C(=O)CCn5ccnn5)C4)c(F)c3[nH]2)CC1` (stereo not drawn) [Example I-1166], the negative-log IC50 (pIC50) under setting [1] is more than 7.00.

Turning to `COc1cccnc1N1CCN(C(=O)c2cc3c(-c4cn(C)nc4C)cc(C4=CCCN(C(=O)CCn5ccnn5)C4)c(F)c3[nH]2)CC1` [Example I-574], under setting [1], the negative logarithm of the IC50 (pIC50) was more than 7.00.

Turning to `CN(C)C(=O)c1cc2ccc(C3=CCCN(C(=O)CCn4ccnn4)C3)cc2s1` [Example I-816], under setting [1], the negative logarithm of the IC50 (pIC50) was 6.00 to 7.00.

In the case of `CCc1cnccc1-c1cc(C2=CCCN(C(C)=O)C2)c(F)c2[nH]c(C(=O)N3CCN(c4ncc(F)cc4OC)CC3)cc12` [Example I-706], under setting [1], the pIC50 was 4.00 to 5.00.

For the compound `COc1ccccc1-c1cc(C2=CCCN(C(=O)CCn3ccnn3)C2)c(F)c2sc(C(=O)N3CCN(c4ncccc4OC)CC3)cc12` [Example I-346], under setting [1], the pIC50 is more than 7.00.

On to `COc1cccnc1N1CCN(C(=O)c2cc3c(-c4ccc(C#N)cn4)cc(C4=CCCN(C(=O)CCn5ccnn5)C4)c(F)c3[nH]2)CC1` [Example I-575], for which the pIC50 under setting [1] was more than 7.00.

For the compound `COc1ccccc1-c1cc(C2=CCCN(C(=O)CCn3ccnn3)C2)c(F)c2[nH]c(C(=O)N3CCN(c4cnc(SC)n5cnnc45)CC3)cc12` [Example I-910], the negative-log IC50 (pIC50) under setting [1] is more than 7.00.

Consider `COc1ccccc1-c1cc(C2=CCCN(C(=O)C(C)C)C2)c(F)c2cc(C(=O)N(C)C)oc12` [Example I-1190], for which, under setting [1], the pIC50 was 6.00 to 7.00.

For `COc1ccncc1-c1cc(C2=CCCN(C(=O)CCn3ccnn3)C2)c(F)c2[nH]c(C(=O)N3CCN(c4ccc(Cl)cc4OC)CC3)cc12` [Example I-450], the negative-log IC50 (pIC50) under setting [1] is more than 7.00.

`COc1cc(F)cnc1N1CCN(C(=O)c2cc3c(C=C4CCOCC4)cc(C4=CCCN(C(=O)CCn5ccnn5)C4)c(F)c3[nH]2)CC1` [Example I-644]: under setting [1], the pIC50 is more than 7.00.

With `COc1cc(C(F)(F)F)cnc1N1CCN(C(=O)c2cc3c(-c4cnc5ccccc5c4OC)cc(C4=CCCN(C(=O)CCn5ccnn5)C4)c(F)c3[nH]2)CC1` [Example I-446], the pIC50 under setting [1] was 5.00 to 6.00.

On to `COc1cc(F)cnc1N1CCN(C(=O)c2cc3c(-c4cnn(-c5ccccc5)c4)cc(C4=CCCN(C(=O)CCn5ccnn5)C4)c(F)c3[nH]2)CC1` [Example I-671], for which, under setting [1], the negative-log IC50 (pIC50) was 6.00 to 7.00.

For the compound `COc1cc(F)cnc1N1CCN(C(=O)c2cc3c(-c4cncc(C5CC5)c4)cc(C4=CCCN(C(=O)CCn5ccnn5)C4)c(F)c3[nH]2)CC1` [Example I-637], the negative-log IC50 (pIC50) under setting [1] is more than 7.00.

With `COc1cccnc1N1CCN(C(=O)c2cc3c(N4CCCOCC4)cc(C4=CCCN(C(=O)CCn5ccnn5)C4)c(F)c3[nH]2)CC1` [Example I-592], the pIC50 under setting [1] was more than 7.00.

As to `CC(=O)c1ccccc1-c1cc(C2=CCCN(C(C)=O)C2)c(F)c2[nH]c(C(=O)N(C)C)cc12` [Example I-1097], under setting [1], the pIC50 was less than 4.00.

As to `COc1ccccc1-c1cc(C2=CCCN(C(=O)CCn3ccnn3)C2)c(F)c2[nH]c(C(=O)N3CCN(c4ncc(C)cc4OC)CC3)cc12` [Example I-939], the pIC50 under setting [1] is more than 7.00.

In the case of `COc1cccc(N2CCN(C(=O)c3cc4c(-c5cnc6ccccc6c5OC)cc(C5=CCCN(C(=O)CCn6ccnn6)C5)c(F)c4[nH]3)CC2)n1` [Example I-1038], under setting [1], the pIC50 is 6.00 to 7.00.

`CN(C)C(=O)c1cc2ccc(C3=CCCN(C(=O)CCn4cccn4)C3)cc2[nH]1` [Example I-826]: the negative-log IC50 (pIC50) under setting [1] was 6.00 to 7.00.

As to `CCc1nc(C)ccc1-c1cc(C(=O)N2Cc3cnn(CC)c3C2)cc2cc(C3=CCCN(C(=O)CCn4ccnn4)C3)n(CC3CC3)c12` [Example I-535], the negative logarithm of the IC50 (pIC50) under setting [1] was less than 4.00.

For the compound `COc1ccccc1-c1cc(C2=CCCN(C(=O)CCn3ccnn3)C2)c(F)c2[nH]c(C(=O)N3CCC(N(C)C4CC4)C3)cc12` (stereo not drawn) [Example I-898], under setting [1], the pIC50 is more than 7.00.

In the case of `COc1c(-c2cc(C3=CCCN(C(=O)CCn4ccnn4)C3)c(F)c3[nH]c(C(=O)N4CCN(c5ncccc5OC5CC5)CC4)cc23)cnc2ccccc12` [Example I-447], the pIC50 under setting [1] was more than 7.00.

On to `COc1ccncc1-c1cc(C2=CCCN(C(=O)CCn3ccnn3)C2)c(F)c2[nH]c(C(=O)N3CCN(c4ccc(C(F)(F)F)cc4OC)CC3)cc12` [Example I-463], for which, under setting [1], the pIC50 was more than 7.00.

`CCc1ccncc1-c1cc(C2=CCCN(C(=O)C(C)C)C2)c(F)c2[nH]c(C(=O)N3CCN(c4ncc(F)cc4OC)CC3)cc12` [Example I-1044]: the negative logarithm of the IC50 (pIC50) under setting [1] was 5.00 to 6.00.

Take `COc1ccccc1-c1cc(C2=CCCN(C(=O)CCn3ccnn3)C2)c(F)c2[nH]c(C(=O)N3CCC(n4c(=O)[nH]c5ncccc54)CC3)cc12` [Example I-981]: under setting [1], the pIC50 was 6.00 to 7.00.

For `COc1ccccc1-c1cc(C2=CCCN(C(=O)CCn3ccnn3)C2)c(F)c2[nH]c(C(=O)N3CCN(c4ccccn4)C(=O)C3)cc12` [Example I-1008], the pIC50 under setting [1] was more than 7.00.

Consider `CCOC(=O)c1ccc(N2CCN(C(=O)c3cc4c(-c5ccccc5OC)cc(C5=CCCN(C(=O)CCn6ccnn6)C5)c(F)c4[nH]3)CC2)cc1` [Example I-931], for which the negative-log IC50 (pIC50) under setting [1] is 6.00 to 7.00.

For `COc1cc(Cl)cnc1N1CCN(C(=O)c2cc3c(-c4cccnc4OC)cc(C4=CCCN(C(=O)CCn5ccnn5)C4)c(F)c3[nH]2)CC1` [Example I-460], the pIC50 under setting [1] is more than 7.00.

Consider `CCc1cn[nH]c1N1CCN(C(=O)c2cc3c(-c4cnccc4OC)cc(C4=CCCN(C(=O)CCn5ccnn5)C4)c(F)c3[nH]2)CC1` [Example I-540], for which the pIC50 under setting [1] is more than 7.00.

With `COc1ccc(N2CCN(C(=O)c3cc4c(-c5ccccc5OC)cc(C5=CCCN(C(=O)CCn6ccnn6)C5)c(F)c4[nH]3)CC2)cc1` [Example I-960], the pIC50 under setting [1] was more than 7.00.

On to `CC(=O)N1CCC=C(c2cc(-c3ccc4cnn(C)c4c3)c3cc(C(=O)N(C)C)[nH]c3c2F)C1` [Example I-882], for which the pIC50 under setting [1] is 6.00 to 7.00.

`CCc1ccccc1N1CCN(C(=O)c2cc3c(-c4ccccc4OC)cc(C4=CCCN(C(=O)CCn5ccnn5)C4)c(F)c3[nH]2)CC1` [Example I-969]: under setting [1], the pIC50 was 6.00 to 7.00.

Take `COc1cc(F)cnc1N1CCN(C(=O)c2cc3c(-c4cncc(OC(C)C)c4)cc(C4=CCCN(C(=O)CCn5ccnn5)C4)c(F)c3[nH]2)CC1` [Example I-655]: the negative logarithm of the IC50 (pIC50) under setting [1] was more than 7.00.

Turning to `COc1cc(F)cnc1N1CCN(C(=O)c2cc3c(-c4cnn(Cc5ccccc5)c4)cc(C4=CCCN(C(=O)CCn5ccnn5)C4)c(F)c3[nH]2)CC1` [Example I-1115], the pIC50 under setting [1] is more than 7.00.

Regarding `CN(C)C(=O)c1cc2c(F)c(C3=CCCN(C(=O)C4Cc5ccccc5CN4C=O)C3)ccc2o1` (stereo not drawn) [Example I-374, 4-fluoro-5-(1-(2-formyl-1,2,3,4-tetrahydroisoquinoline-3-carbonyl)-1,2,5,6-tetrahydropyridin-3-yl)-N,N-dimethylbenzofuran-2-carboxamide], under setting [1], the negative-log IC50 (pIC50) was more than 7.00.

In the case of `CCC1CN(C)CC1c1cc(C2=CCCN(C(=O)CCn3ccnn3)C2)c(F)c2[nH]c(C(=O)N3CCN(c4ncc(F)cc4OC)CC3)cc12` (stereo not drawn) [Example I-1208, 1-[5-[4-(4-ethyl-1-methyl-pyrrolidin-3-yl)-7-fluoro-2-[4-(5-fluoro-3-methoxy-2-pyridyl)piperazine-1-carbonyl]-1H-indol-6-yl]-3,6-dihydro-2H-pyridin-1-yl]-3-(triazol-1-yl)propan-1-one], under “listed as I-393, read-out: STAT6 IL4 pSTAT6 assay in A549 cells: Average IC50”, the negative logarithm of the IC50 (pIC50) is more than 7.00.

For the compound `COc1cc(F)cnc1N1CCN(C(=O)c2cc3c(C4=CCC(C#N)CC4)cc(C4=CCCN(C(=O)CCn5ccnn5)C4)c(F)c3[nH]2)CC1` (stereo not drawn) [Example I-1141], under setting [1], the pIC50 is more than 7.00.

For the compound `COc1ccccc1-c1cc(C2=CCCN(C(=O)CCn3ccnn3)C2)c(F)c2[nH]c(C(=O)N3CCN(c4ncc(N(C)C)cc4OC)CC3)cc12` [Example I-416], the negative logarithm of the IC50 (pIC50) under setting [1] was more than 7.00.

With `COc1cccnc1N1CCN(C(=O)c2cc3c(-c4cccc(F)c4F)cc(C4=CCCN(C(=O)CCn5ccnn5)C4)c(F)c3[nH]2)CC1` [Example I-371], the pIC50 under setting [1] was more than 7.00.

As to `CCc1ccncc1-c1cc(C2=CCCN(C(=O)CCn3ccnn3)C2)c(F)c2[nH]c(C(=O)N3CCN(c4ccccc4OC)CC3)cc12` [Example I-471], the pIC50 under setting [1] was more than 7.00.

As to `COc1cc(F)cnc1N1CCN(C(=O)c2cc3c(-c4ccc(C5CC5)cc4)cc(C4=CCCN(C(=O)CCn5ccnn5)C4)c(F)c3[nH]2)CC1` [Example I-1157], under setting [1], the negative logarithm of the IC50 (pIC50) was more than 7.00.

Turning to `COc1cnccc1-c1cc(C2=CCCN(C(=O)CCn3ccnn3)C2)cc2[nH]c(C(=O)N(C)C)cc12` [Example I-1060], the pIC50 under setting [1] was more than 7.00.

On to `CCc1ccncc1-c1cc(C2=CCCN(C(=O)CCn3ccnn3)C2)c(F)c2[nH]c(C(=O)N3CCN(c4ncccc4OC4CC4)CC3)cc12` [Example I-479], for which the negative-log IC50 (pIC50) under setting [1] was more than 7.00.

With `COc1ccncc1-c1cc(C2=CCCN(C(=O)CCn3ccnn3)C2)c(F)c2[nH]c(C(=O)N3CCN(C4CCCCC4)CC3)cc12` [Example I-1149], the pIC50 under setting [1] was more than 7.00.

For the compound `COc1ccccc1-c1cc(C2=CCCN(C(=O)CCn3ccnn3)C2)c(F)c2[nH]c(C(=O)N3CCN(c4ncccc4Oc4ccccc4)CC3)cc12` [Example I-334], the pIC50 under setting [1] was more than 7.00.

Take `COc1ncccc1-c1cc(C(=O)N2Cc3cnn(C)c3C2)cc2cc(C3=CCCN(C(=O)CC(=O)O)C3)n(CC3CC3)c12` [Example I-791]: the pIC50 under setting [1] was more than 7.00.

The term pIC50 denotes the IC50 on a negative log10 scale, so that one unit is a factor of ten.
